Results published in paper PMC6198068, “Discovery of a Novel Nav1.7 Inhibitor From Cyriopagopus albostriatus Venom With Potent Analgesic Efficacy” (Frontiers in Pharmacology, 2018).
Where a SMILES comes first, the peptide text is derived from it. Bridges are numbered along the chain shown (N, C = ends).

Experiments:
Nav1.2 = target: T1, Nav1.2 (Homo sapiens, UniProt Q99250); test: Whole-cell patch-clamp, Nav1.2 in HEK293T cells; format: cell-based; conditions: mean ± SEM
T1 construct: expressed in transfected cells; host or cells: HEK293T
T1 sequence (Q99250 whole entry): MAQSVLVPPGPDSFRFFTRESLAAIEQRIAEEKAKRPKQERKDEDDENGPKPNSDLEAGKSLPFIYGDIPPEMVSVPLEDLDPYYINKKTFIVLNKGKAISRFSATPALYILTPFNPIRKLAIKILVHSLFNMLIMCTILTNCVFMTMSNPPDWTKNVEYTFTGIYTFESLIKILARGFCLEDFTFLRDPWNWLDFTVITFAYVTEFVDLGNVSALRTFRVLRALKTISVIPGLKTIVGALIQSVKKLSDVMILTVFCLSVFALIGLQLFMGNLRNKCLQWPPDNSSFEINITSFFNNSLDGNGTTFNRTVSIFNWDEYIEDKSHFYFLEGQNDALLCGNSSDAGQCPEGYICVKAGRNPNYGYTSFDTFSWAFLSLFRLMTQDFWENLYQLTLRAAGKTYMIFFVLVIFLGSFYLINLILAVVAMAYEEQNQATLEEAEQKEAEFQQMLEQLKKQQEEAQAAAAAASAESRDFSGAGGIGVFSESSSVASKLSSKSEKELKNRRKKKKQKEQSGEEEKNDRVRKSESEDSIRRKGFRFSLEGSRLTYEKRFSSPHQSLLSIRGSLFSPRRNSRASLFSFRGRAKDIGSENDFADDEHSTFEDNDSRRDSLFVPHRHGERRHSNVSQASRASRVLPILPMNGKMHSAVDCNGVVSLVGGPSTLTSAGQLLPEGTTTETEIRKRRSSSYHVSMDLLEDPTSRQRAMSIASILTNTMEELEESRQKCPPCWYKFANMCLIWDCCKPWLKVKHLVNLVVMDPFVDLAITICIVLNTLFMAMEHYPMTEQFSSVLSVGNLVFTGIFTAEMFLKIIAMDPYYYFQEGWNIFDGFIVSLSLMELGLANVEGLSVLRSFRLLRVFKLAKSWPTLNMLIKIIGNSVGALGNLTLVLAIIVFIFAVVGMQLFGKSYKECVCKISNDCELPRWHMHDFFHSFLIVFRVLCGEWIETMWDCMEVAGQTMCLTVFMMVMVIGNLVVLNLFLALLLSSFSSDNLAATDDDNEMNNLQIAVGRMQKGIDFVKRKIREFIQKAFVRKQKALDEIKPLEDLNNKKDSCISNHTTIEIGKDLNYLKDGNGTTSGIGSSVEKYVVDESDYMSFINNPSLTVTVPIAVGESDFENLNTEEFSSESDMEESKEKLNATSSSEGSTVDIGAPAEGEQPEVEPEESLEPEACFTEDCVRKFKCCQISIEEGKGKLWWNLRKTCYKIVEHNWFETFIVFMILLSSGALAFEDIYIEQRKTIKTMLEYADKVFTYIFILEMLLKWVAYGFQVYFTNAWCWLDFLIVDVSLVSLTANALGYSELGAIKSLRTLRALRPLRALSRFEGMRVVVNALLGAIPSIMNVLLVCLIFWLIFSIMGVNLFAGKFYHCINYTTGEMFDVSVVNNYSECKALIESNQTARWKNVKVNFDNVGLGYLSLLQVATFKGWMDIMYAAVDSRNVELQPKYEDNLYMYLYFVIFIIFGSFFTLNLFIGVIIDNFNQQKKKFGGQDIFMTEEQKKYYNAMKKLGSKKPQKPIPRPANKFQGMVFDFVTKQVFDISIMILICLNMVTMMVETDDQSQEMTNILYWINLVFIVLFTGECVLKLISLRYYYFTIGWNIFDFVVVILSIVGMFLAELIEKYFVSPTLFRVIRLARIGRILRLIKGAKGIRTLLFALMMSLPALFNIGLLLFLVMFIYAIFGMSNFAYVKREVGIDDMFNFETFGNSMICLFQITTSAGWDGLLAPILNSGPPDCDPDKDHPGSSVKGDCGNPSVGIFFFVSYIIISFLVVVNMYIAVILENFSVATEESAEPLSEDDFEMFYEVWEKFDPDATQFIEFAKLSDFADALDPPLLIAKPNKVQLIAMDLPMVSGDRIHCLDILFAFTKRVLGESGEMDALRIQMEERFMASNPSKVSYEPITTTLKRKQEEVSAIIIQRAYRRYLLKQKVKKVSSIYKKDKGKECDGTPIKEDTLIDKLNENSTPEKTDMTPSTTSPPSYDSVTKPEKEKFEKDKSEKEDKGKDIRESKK
From the text: (§1) The cDNA genes encoding rat Nav1.4 and human Nav1.7 were subcloned into vectors pRGB4 and pcDNA3.1-mod, respectively. Mutations of rNav1.4 (N655D, Q657E, and N655D/Q657E) and hNav1.7 (D816N, E818Q, and D816N/E818Q) were constructed using the Gene Tailor Site-Directed Mutagenesis system (Invitrogen, Carlsbad, CA, United States), according to the manufacturer’s instructions. Nav1.2–Nav1.7 and mutant plasmids together with eGFP were transiently transfected into HEK293T cells while Nav1.8 together with eGFP was transiently transfected into ND7/23 cells by Lipofectamine 2000 (Invitrogen, Carlsbad, CA, United States). Additionally, plasmids β1- and β2-eGFP encoding the human β1 and β2 subunits, respectively, were co-transfected with those encoding WT Nav1.7 and Nav1.7 mutations in HEK293T cells. […] Cells with green fluorescent protein fluorescence were selected for whole-cell patch-clamp recordings 24 h after transfection.
(§2) Whole-cell patch-clamp recordings were performed at room temperature (20–25°C) using an EPC 10 USB Patch Clamp Amplifier (HEKA, Elektronik, Lambrecht, Germany). […] Data was analyzed by software Igo Pro 6.10A (WaveMetrics, Lake Oswego, OR, United States), SigmaPlot 10.0 (Sigma-Aldrich, St. Louis, MO, United States), OriginPro 8 (OriginLab Corp., Northampton, MA, United States), and GraphPad Prism 5 (GraphPad Software, San Diego, CA, United States). […]

Human Nav1.9 = test: Whole-cell patch-clamp, Nav1.9 in ND7/23 cells; format: cell-based; conditions: up to 10 μM, 50 ms to −40 mV from −120 mV, in presence of 1 μM TTX
WT Nav1.7 = target: T2, WT Nav1.7 (Homo sapiens, UniProt Q15858); test: Time course of Nav1.7 inhibition and recovery upon washing; format: cell-based; conditions: 1 μM, n = 4
T2 construct: expressed in transfected cells; host or cells: HEK293T
T2 sequence (Q07699 19-218): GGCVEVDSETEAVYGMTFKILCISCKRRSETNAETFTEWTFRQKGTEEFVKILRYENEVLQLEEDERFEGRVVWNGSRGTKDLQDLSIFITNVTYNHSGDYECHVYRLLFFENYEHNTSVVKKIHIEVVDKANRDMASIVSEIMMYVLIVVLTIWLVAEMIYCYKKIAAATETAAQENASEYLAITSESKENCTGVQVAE
T2 sequence (Q15858 other isoform, or with tags, fused parts or gaps): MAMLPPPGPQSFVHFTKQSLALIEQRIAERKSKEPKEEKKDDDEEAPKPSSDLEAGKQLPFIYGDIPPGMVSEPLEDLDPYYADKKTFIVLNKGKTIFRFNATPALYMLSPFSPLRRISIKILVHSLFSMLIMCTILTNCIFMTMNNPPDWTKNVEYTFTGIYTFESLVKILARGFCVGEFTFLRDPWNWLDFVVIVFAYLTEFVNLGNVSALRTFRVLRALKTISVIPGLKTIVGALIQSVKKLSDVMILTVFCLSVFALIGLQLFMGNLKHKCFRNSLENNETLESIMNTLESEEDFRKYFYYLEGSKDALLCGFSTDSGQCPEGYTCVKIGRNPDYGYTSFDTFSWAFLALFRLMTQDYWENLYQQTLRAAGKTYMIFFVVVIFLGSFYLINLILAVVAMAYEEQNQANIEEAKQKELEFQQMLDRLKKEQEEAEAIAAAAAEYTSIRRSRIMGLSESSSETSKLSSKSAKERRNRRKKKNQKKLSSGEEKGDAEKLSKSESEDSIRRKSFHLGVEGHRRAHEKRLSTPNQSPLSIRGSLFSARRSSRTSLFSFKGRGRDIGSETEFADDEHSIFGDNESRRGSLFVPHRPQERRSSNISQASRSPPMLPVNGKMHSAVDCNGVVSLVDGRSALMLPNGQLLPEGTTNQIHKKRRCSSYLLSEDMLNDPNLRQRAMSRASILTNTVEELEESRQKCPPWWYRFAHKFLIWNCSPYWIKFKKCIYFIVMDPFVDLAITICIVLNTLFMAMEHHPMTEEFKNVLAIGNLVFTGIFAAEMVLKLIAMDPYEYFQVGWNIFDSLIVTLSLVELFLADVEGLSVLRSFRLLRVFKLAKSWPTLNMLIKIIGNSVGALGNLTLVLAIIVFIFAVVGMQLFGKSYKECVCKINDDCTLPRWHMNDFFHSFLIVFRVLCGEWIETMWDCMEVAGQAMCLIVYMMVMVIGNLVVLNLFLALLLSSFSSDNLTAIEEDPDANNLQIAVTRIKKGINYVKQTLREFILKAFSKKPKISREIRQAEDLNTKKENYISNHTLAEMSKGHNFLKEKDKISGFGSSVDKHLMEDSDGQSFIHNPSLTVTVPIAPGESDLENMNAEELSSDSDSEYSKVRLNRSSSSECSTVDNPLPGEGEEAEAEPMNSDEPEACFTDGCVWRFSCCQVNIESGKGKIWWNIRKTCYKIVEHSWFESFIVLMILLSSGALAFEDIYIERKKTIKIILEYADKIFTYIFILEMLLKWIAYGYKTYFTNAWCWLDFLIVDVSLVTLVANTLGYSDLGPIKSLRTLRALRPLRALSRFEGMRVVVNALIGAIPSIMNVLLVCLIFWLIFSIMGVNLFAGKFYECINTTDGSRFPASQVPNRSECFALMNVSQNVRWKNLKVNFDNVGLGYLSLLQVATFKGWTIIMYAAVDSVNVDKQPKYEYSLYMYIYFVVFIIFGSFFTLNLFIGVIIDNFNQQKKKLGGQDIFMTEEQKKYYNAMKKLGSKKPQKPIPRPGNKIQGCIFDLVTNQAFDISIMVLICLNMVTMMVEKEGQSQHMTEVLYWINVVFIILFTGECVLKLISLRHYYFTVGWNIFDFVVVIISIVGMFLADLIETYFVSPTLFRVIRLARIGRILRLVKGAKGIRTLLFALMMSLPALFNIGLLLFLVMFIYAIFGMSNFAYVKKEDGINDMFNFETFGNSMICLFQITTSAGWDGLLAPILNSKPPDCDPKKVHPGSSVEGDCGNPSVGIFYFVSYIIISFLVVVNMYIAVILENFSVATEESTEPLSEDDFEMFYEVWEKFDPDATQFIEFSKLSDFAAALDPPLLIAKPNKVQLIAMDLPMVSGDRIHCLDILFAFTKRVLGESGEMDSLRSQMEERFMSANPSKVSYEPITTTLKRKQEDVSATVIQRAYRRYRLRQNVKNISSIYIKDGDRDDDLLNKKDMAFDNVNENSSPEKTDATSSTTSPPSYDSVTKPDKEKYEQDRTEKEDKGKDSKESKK
T2 sequence (O60939 30-215, further chain): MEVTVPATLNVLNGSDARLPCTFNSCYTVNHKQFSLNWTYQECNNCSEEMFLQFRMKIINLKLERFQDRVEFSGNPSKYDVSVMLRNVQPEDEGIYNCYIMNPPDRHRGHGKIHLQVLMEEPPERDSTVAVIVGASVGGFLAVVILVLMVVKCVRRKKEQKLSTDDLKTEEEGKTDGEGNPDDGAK
From the text: as §1, §2

Nav1.4/N655D = test: Whole-cell patch-clamp, Nav1.4/N655D in HEK293T cells; format: cell-based, rat; conditions: 1 μM, n = 4–5 cells
From the text: as §1, §2

Nav1.7/E818Q = test: Whole-cell patch-clamp, Nav1.7/E818Q in HEK293T cells; format: cell-based, human; conditions: 1 μM, n = 5 cells
From the text: as §1, §2

hot plate test in mice = test: Hot plate test; format: in vivo, ICR mice; conditions: 55 ± 1°C, 30 min after injection, control 10.6 ± 1.1 s, mean ± SEM, n = 6–8
Method: The ICR mice (18–22 g) used in this study were purchased from the Experimental Animal Center of SLac-kinda (Changsha, China). The animals were maintained at 20–25°C and freely allowed to standard rodent chow and water ad libitum. Ethical approval for in vivo experiments in animals was approved by the Animal Care and Use Committee (ACUC) at the Hunan Province Animal Management Office (HPAMO).
According to a previous method ([Meng et al., 2017]), a hot plate apparatus (model YLS-21A, Jinan, China) maintained at 55 ± 1°C, was used to measure the pain threshold of mice subjected to a thermal stimulus. Each female mouse was placed on hot plate to observe its pain response (hind-paw-licking or jumping) acted as its own control. The mice whose latent response times were shorter than 5 s or longer than 30 s were excluded from the test.

SMILES: CC(C)C[C@H](NC(=O)[C@H](CC(=O)O)NC(=O)[C@H](Cc1ccc(O)cc1)NC(=O)[C@H](CCCCN)NC(=O)[C@@H]1CSSC[C@@H]2NC(=O)[C@H](CCCCN)NC(=O)[C@H](CC(=O)O)NC(=O)[C@H](CC(N)=O)NC(=O)[C@H](CO)NC(=O)[C@@H]3CCCN3C(=O)[C@H](CC(N)=O)NC(=O)[C@@H]3CSSC[C@H](NC(=O)[C@H](C(C)C)NC(=O)[C@H](CC(C)C)NC(=O)[C@H](CO)NC(=O)[C@H](CO)NC(=O)[C@H](CO)NC(=O)[C@H](CCCCN)NC(=O)[C@H](CSSC[C@H](NC(=O)[C@H](C)N)C(=O)N[C@@H](CC(C)C)C(=O)NCC(=O)N[C@@H](Cc4ccccc4)C(=O)NCC(=O)N[C@@H](CCC(=O)O)C(=O)N[C@@H](CCCCN)C(=O)N3)NC2=O)C(=O)N[C@@H](CO)C(=O)N[C@@H](CCC(N)=O)C(=O)N[C@@H](CCCCN)C(=O)N[C@@H](Cc2c[nH]cn2)C(=O)N[C@@H](CCCCN)C(=O)N[C@@H](Cc2c[nH]c3ccccc23)C(=O)N1)C(=O)O [Ca2a] (H-ACLGFGEKCNPSNDKCCKSSSLVCSQKHKWCKYDL-OH; disulfide 2-17, 9-24, 16-31 (inferred); N-terminus and C-terminus assumed)
- decrease of Nav1.2 current amplitude (Nav1.2; 1 μM, 50 ms to −10 mV from −100 mV): 82.6 ± 2.7%
- IC50 (Nav1.2; whole-cell patch-clamp, n = 4–7 cells per data point): 216 ± 9.1 nM
- inhibitory effect on Nav1.9 currents (Human Nav1.9): no inhibitory effects
- τoff, WT Nav1.7 (WT Nav1.7; recovery upon washing with bath solution): 295.6 ± 27.5 s
- τon, WT Nav1.7 (WT Nav1.7): 18.0 ± 2.5 s
- inhibitory effect on Nav1.4/N655D (Nav1.4/N655D): no inhibitory effect
- activity on Nav1.7/E818Q (Nav1.7/E818Q): no activity
- latency time, hot plate (hot plate test in mice; 50 μg/kg i.p.): 12.9 ± 0.8 s
- latency time, hot plate (hot plate test in mice; 100 μg/kg i.p.): 15.4 ± 1.2 s
- latency time, hot plate (hot plate test in mice; 200 μg/kg i.p.): 18.1 ± 1.6 s
